These results are taken from publication PMC6960228, “Ethoxysanguinarine, a Novel Direct Activator of AMP-Activated Protein Kinase, Induces Autophagy and Exhibits Therapeutic Potential in Breast Cancer Cells” (Frontiers in Pharmacology, 2020).

In general, IC50 refers to the concentration at which inhibition is half-maximal. A low value points to greater potency.

The subject of assay [1] is T47D. Briefly: MTT cytotoxicity assay. Type of assay: cell-based. The following applies: Homo sapiens, 24 h, means ± SD of quadruplicate determinations. On the procedure: (§1) Cells were seeded into 96-well plate and pre-cultured for 24 h, then treated with Eth for 24. Cell cytotoxicity was determined by MTT assay. The absorbance was measured at 490 nm by automated microplated reader (BioTek Instruments, Inc., Winooski, VT, USA), and the cell death rate was calculated as followed: inhibition rate (%) = (average A490 of the control group − average A490 of the experimental group)/(average A490 of the control group − average A490 of the blank group) × 100%. Cell viability was estimated by trypan blue dye exclusion.
On the technique in general: Tetrazolium assays rely on reduction of a dye to a coloured formazan, in cell work by metabolically active cells.

In assay [2] the test system is MCF-7, MDA-MB-231, and MDA-MB-436 cells. Briefly: Soft-agar colony formation assay. The following applies: 2 weeks. The assay is classed as cell-based, human. The protocol: Cells were suspended in 1 mL of L-15 or DMEM containing 0.3% low-melting-point agarose (Amresco, Cleveland, Oh, USA) and 10% FBS, and plated on a bottom layer containing 0.6% agarose and 10% FBS in 6-well plate in triplicate. After 2 weeks, plates were stained with 0.2% gentian violet and the colonies were counted under light microscope (IX70; Olympus Corporation, Tokyo, Japan) after 2 weeks.

The subject of assay [3] is MDA-MB-436. As to the kind of experiment: MTT cytotoxicity assay. The assay is classed as cell-based. As to conditions: Homo sapiens, MDA-MB-436, 24 h.
Text: (§2) Human BC cell lines MCF-7, MDA-MB-231, DMA-MB-436, SK-BR3, MDA-MB-468, MDA-MB-453, and MDA-MB-435S and non-tumorigenic MCF-10A human mammary epithelial cells were obtained from American Type Culture Collection (ATCC; Manassas, VA, USA). MCF-7, SK-BR3, MDA-MB-231, and MDA-MB-436 cells were maintained in Dulbecco’s modified Eagle’s medium (DMEM; high glucose; Gibco; Thermo Fisher Scientific, Inc., Waltham, MA, USA) supplemented with 10% fetal bovine serum (FBS; HyClone; Logan, UT, USA) and antibiotics and incubated in a humidified atmosphere with 5% CO2 at 37°C. MDA-MB-468, MDA-MB-453, and MDA-MB-435S cells were maintained in Leibovitz’s L-15 (Gibco) supplemented with 10% FBS and antibiotics and incubated in a humidified atmosphere without CO2 at 37°C. MCF-10A cells were maintained in DMEM/F12 medium containing 5% horse serum (HS), insulin ([…]), epidermal growth factor (EGF, 20 ng/mL), choleratoxin ([…]), hydrocortisone ([…]), penicillin (50 U/mL), and streptomycin (50 U/mL), and incubated in a humidified atmosphere with CO2 at 37°C.
as §1

In assay [4] the test system is MCF-7. As to the kind of experiment: MTT cytotoxicity assay. Type of assay: cell-based. The following applies: Homo sapiens, MCF7, MCF-7, 24 h.
Text: as §2, §1

Assay [5] concerns MDA-MB-468. Briefly: MTT cytotoxicity assay. Type of assay: cell-based. As to conditions: Homo sapiens, MDA-MB-468, 24 h, means ± SD of quadruplicate determinations.
Text: as §2, §1

The test system of assay [6] is MDA-MB-435S. Briefly: MTT cytotoxicity assay. The following applies: Homo sapiens, 24 h, means ± SD of quadruplicate determinations. Type of assay: cell-based.
Text: as §2, §1

Assay [7] deals with MDA-MB-231. As to the kind of experiment: MTT cytotoxicity assay. The assay is classed as cell-based. The following applies: Homo sapiens, MDA-MB-231, 24 h.
Text: as §2, §1

Assay [8] relates to SK-BR3. Briefly: MTT cytotoxicity assay. The assay is classed as cell-based. The following applies: Homo sapiens, SK-BR-3, SK-BR3, 24 h, means ± SD of quadruplicate determinations.
Text: as §2, §1

The test system of assay [9] is MDA-MB-453. As to the kind of experiment: MTT cytotoxicity assay. The assay is classed as cell-based. The following applies: Homo sapiens, MDA-MB-453, 24 h, means ± SD of quadruplicate determinations.
Text: as §2, §1

Structures are written as SMILES.

Take `CCOC1c2c(ccc3c2OCO3)-c2ccc3cc4c(cc3c2N1C)OCO4` (stereo not drawn) [Eth, Ethoxysanguinarine]: the IC50 came to 9.15 ± 1.83 µM in assay [1]; 2.63 ± 0.65 µM in [3]; 3.29 ± 1.5 µM in assay [4]; 6.67 ± 1.7 µM in assay [5]; 4.58 ± 0.77 µM in assay [6]; 3.75 ± 0.94 µM in assay [7]. Moreover, the IC50 in [8] was determined as 2.79 ± 0.39 µM; in assay [9], 7.06 ± 0.59 µM. The “clonogenic ability (colony formation)” value in assay [2] is “significantly inhibited the clonogenic ability”.
